Results from BindingDB's records for doi:10.1021/jm9707838 (Smithkline Beecham, 1998).

Tests used:
[1] = Inhibition of V-ATPase-driven proton transport in membrane vesicles derived from chicken osteoclasts (cOc)
[2] = Inhibition of V-ATPase-driven proton transport in membrane vesicles derived from bovine chromaffin granules (bCG)
[3] = Inhibition of V-ATPase-driven proton transport in membrane vesicles derived from chicken osteoclasts (cOc).
[4] = Inhibition of V-ATPase-driven proton transport in membrane vesicles derived from bovine chromaffin granules (bCG).

| Structure (SMILES) | IC50 [1] [µM] | IC50 [2] [µM] | IC50 [3] [µM] | IC50 [4] [µM] |
| --- | --- | --- | --- | --- |
| CO/C1=C\C(C)=C\[C@@H](C)C(=O)[C@@H](C)C/C(C)=C/C=C/[C@H](OC)[C@@H]([C@@H](C)[C@@H](O)[C@H](C)[C@@]2(O)C[C@@H](C(=O)Oc3ccccc3)[C@H](C)[C@@H](C(C)C)O2)OC1=O [2-[3-(3,15-Dimethoxy-7,9,11,13-tetramethyl-10,16-dioxo-oxacyclohexadeca-4,6,12,14-tetraen-2-yl)-2-hydroxy-1-methyl-butyl]-2-hydroxy-6-isopropyl-5-methyl-tetrahydro-pyran-4-carboxylic acid phenyl ester] | > 10 | > 10 |  |  |
| CO/C1=C\C(C)=C\[C@@H](C)[C@@H](O)[C@@H](C)C/C(C)=C/C=C/[C@H](OC)[C@@H]([C@@H](C)[C@@H](O)[C@H](C)C(=O)O)OC1=O [(2S,3R,4S)-3-Hydroxy-4-((4E,6E,12E,14Z)-(2R,3S,9S,10S,11R)-10-hydroxy-3,15-dimethoxy-7,9,11,13-tetramethyl-16-oxo-oxacyclohexadeca-4,6,12,14-tetraen-2-yl)-2-methyl-pentanoic acid] |  |  | > 10 | > 10 |
| COC(=O)[C@@H](C)[C@H](O)[C@H](C)[C@H]1OC(=O)/C(OC)=C/C(C)=C/[C@@H](C)C(=O)[C@@H](C)C/C(C)=C/C=C/[C@@H]1OC [(2S,3R,4S)-4-((4E,6E,12E,14Z)-(2R,3S,9S,11R)-3,15-Dimethoxy-7,9,11,13-tetramethyl-10,16-dioxo-oxacyclohexadeca-4,6,12,14-tetraen-2-yl)-3-hydroxy-2-methyl-pentanoic acid methyl ester] |  |  | > 10 | > 10 |
| CO/C1=C\C(C)=C\[C@@H](C)C(=O)[C@@H](C)C/C(C)=C/C=C/[C@H](OC)[C@@H]([C@@H](C)[C@@H](O)[C@H](C)C(=O)O)OC1=O [(2S,3R,4S)-4-((4E,6E,12E,14Z)-(2R,3S,9S,11R)-3,15-Dimethoxy-7,9,11,13-tetramethyl-10,16-dioxo-oxacyclohexadeca-4,6,12,14-tetraen-2-yl)-3-hydroxy-2-methyl-pentanoic acid] |  |  | > 10 | > 10 |
